This note sets out measurements from ChEMBL document CHEMBL1201862, “PubChem BioAssay data set” (2004).

Molecules are shown by their SMILES.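 Values below derive from 48-hour exposures of cells grown in 96-well plates, with endpoints linearly interpolated between the two concentrations bracketing the appropriate inhibition level. The concentration for 50% growth inhibition is given as GI50.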 Activity calls are given as the source filed them. Cut-off read from the data, not from the text of the source: active = GI50 up to about 1.1 µM and inactive = higher. Bounds are passed on as bounds.

Test systems include BT-549; NCI-H460; PC-3; NCI/ADR-RES; SW-620; SN12C; 786-0; CCRF-CEM; IGROV-1; MDA-MB-435; T47D; HCT-15; UACC-62; LOX IMVI; SF-268; A549; K562; DU-145; SK-MEL-5; A498.
What all share (experiment): NCI anticancer screen, dose series, 48 h

For `c1ccc(/N=C(\N2CCCC2)N(CCN2CCCC2)c2ccccc2)cc1`, the GI50 in the assay on BT-549 was 15.6 µM (inactive); in the assay on NCI-H460 it was 10.3 µM (inactive); with PC-3, 5.5 µM (inactive); with NCI/ADR-RES it was 37 µM (inactive); in the assay on SW-620, 11.4 µM (inactive); in the assay with SN12C it was 29.8 µM (inactive). Besides, the GI50 with 786-0 is 43.2 µM (inactive); in the assay on CCRF-CEM it was 5.93 µM (inactive); in the assay with IGROV-1, 24.9 µM (inactive); with MDA-MB-435 it was 7.67 µM (inactive); in the assay with T47D, 28.8 µM (inactive); in the assay with HCT-15, 22.1 µM. For the same compound, the GI50 in the assay with UACC-62 was 16.6 µM (inactive); with LOX IMVI it was 2.86 µM (inactive); in the assay with SF-268, > 10 µM (inactive); in the assay on A549, 56.6 µM (inactive); in the assay with K562 it was 3.8 µM (inactive); with DU-145, > 10 µM (inactive). In the assay with SK-MEL-5, the GI50 was 12.2 µM (inactive).

In the case of `Cc1nc(NC(C)(CO)CO)nc(N/N=C/c2ccc(Cl)cc2)c1C(=O)Nc1ccc(Cl)cc1`, the GI50 in the assay with BT-549, with NCI-H460, with PC-3, with NCI/ADR-RES, with SW-620 and in the assay on SN12C was > 100 µM (inactive) in each case. The GI50 in the assay with 786-0 is > 100 µM (inactive); in the assay on CCRF-CEM, 42.9 µM (inactive); in the assay on IGROV-1, > 100 µM (inactive); in the assay with MDA-MB-435 it was > 100 µM (inactive); with T47D, > 100 µM (inactive); in the assay with HCT-15, > 100 µM. For the same compound, the GI50 is 59.8 µM (inactive) in the assay on UACC-62; > 100 µM (inactive) with LOX IMVI; > 100 µM (inactive) with SF-268; 77.3 µM (inactive) in the assay on A549; > 100 µM (inactive) with K562; > 100 µM (inactive) in the assay on DU-145.

As for `Cc1c(C)c2c(c(N)c1C#N)C(=O)N(N)C2=O`, the GI50 in the assay with BT-549 was > 100 µM (inactive); in the assay on NCI-H460, > 100 µM (inactive); in the assay on PC-3, > 100 µM (inactive); in the assay on NCI/ADR-RES, > 100 µM (inactive); with SW-620, 80.5 µM (inactive); with A498, 40.4 µM (inactive). Further, the GI50 in the assay on SN12C was > 100 µM (inactive); with 786-0, 87.9 µM (inactive); in the assay on CCRF-CEM, > 100 µM (inactive); with IGROV-1 it was > 100 µM (inactive); with MDA-MB-435, > 100 µM (inactive); in the assay on T47D, > 100 µM (inactive). In addition, the GI50 in the assay on HCT-15 is > 100 µM; in the assay with UACC-62, > 100 µM (inactive); in the assay on SF-268, > 100 µM (inactive); in the assay on A549 it was > 100 µM (inactive); in the assay on K562 it was > 100 µM (inactive); with DU-145 it was > 100 µM (inactive). Besides, the GI50 in the assay on SK-MEL-5 is > 100 µM (inactive).

For `COC(=O)[C@H](Cc1ccccc1)NC(=O)c1ccc(CNC(=O)/C=C/c2ccc(-c3ccccc3)cc2)cc1`, the GI50 with BT-549 is 24.9 µM (inactive); with NCI-H460, > 100 µM (inactive); in the assay on PC-3, > 100 µM (inactive); in the assay on NCI/ADR-RES, 59.8 µM (inactive); in the assay on SW-620, > 100 µM (inactive); with A498, > 100 µM (inactive). Moreover, the GI50 was > 100 µM (inactive) in the assay on SN12C; 3.56 µM (inactive) in the assay with 786-0; 6.62 µM (inactive) in the assay on CCRF-CEM; > 100 µM (inactive) in the assay on IGROV-1; > 100 µM (inactive) in the assay on MDA-MB-435; > 100 µM (inactive) in the assay with T47D. The GI50 with HCT-15 is > 100 µM; in the assay with UACC-62, 44.2 µM (inactive); with SF-268, 15.2 µM (inactive); in the assay on A549, > 100 µM (inactive); with K562, 77.1 µM (inactive); in the assay with DU-145, > 100 µM (inactive). The GI50 with SK-MEL-5 was > 100 µM (inactive).

Turning to `N=C(N)SCc1cccc(-c2nc3ccccc3c(=O)o2)c1`, the GI50 in the assay with BT-549, with NCI-H460, with PC-3, in the assay on NCI/ADR-RES, in the assay with SW-620 and in the assay with A498 was > 100 µM (inactive) each time. Also, the GI50 is > 100 µM (inactive) in the assay on SN12C; > 100 µM (inactive) in the assay with 786-0; > 100 µM (inactive) with IGROV-1; > 100 µM (inactive) with MDA-MB-435; > 100 µM (inactive) in the assay on T47D; > 100 µM in the assay with HCT-15. For the same compound, the GI50 in the assay on UACC-62, in the assay on LOX IMVI, in the assay on SF-268, in the assay on A549, in the assay on K562 and in the assay with DU-145 was > 100 µM (inactive) each time. The GI50 in the assay on SK-MEL-5 was > 100 µM (inactive).

Turning to `O=c1cc(NNc2ccccc2F)[nH]c(=O)[nH]1`, the GI50 is 17.5 µM (inactive) in the assay on BT-549; 0.0667 µM (active) in the assay with NCI-H460; 18.9 µM (inactive) in the assay on PC-3; 16.6 µM (inactive) in the assay on NCI/ADR-RES; 18 µM (inactive) with SW-620; 59.8 µM (inactive) in the assay with A498. In addition, the GI50 in the assay on 786-0 was 15.3 µM (inactive); in the assay with CCRF-CEM, 17.5 µM (inactive); in the assay on IGROV-1, 16.7 µM (inactive); with T47D, 0.679 µM (active); in the assay on HCT-15, 16 µM; with UACC-62, 17.1 µM (inactive). Also, the GI50 is 16 µM (inactive) with LOX IMVI; 19.4 µM (inactive) in the assay with SF-268; 55 µM (inactive) in the assay on A549; 21.8 µM (inactive) with K562; 43.3 µM (inactive) with DU-145; 22.3 µM (inactive) with SK-MEL-5.

On to `CC(=O)O[C@@H]1C[C@]2(C(=O)c3ccccc3)C(=O)C(=O)S[C@]12c1ccccc1`, for which the GI50 in the assay with BT-549 is 44.1 µM (inactive); with NCI-H460 it was 45.6 µM (inactive); in the assay on PC-3, 36.5 µM (inactive); in the assay on NCI/ADR-RES, 41.6 µM (inactive); in the assay on SW-620, 31.6 µM (inactive); with A498, 40.2 µM (inactive). Further, the GI50 in the assay with SN12C was 35.8 µM (inactive); in the assay with 786-0 it was 35.5 µM (inactive); in the assay on IGROV-1 it was 45.4 µM (inactive); in the assay on MDA-MB-435, 29.2 µM (inactive); in the assay with T47D, 28.3 µM (inactive); in the assay on HCT-15 it was 32.9 µM. Besides, the GI50 was 39.7 µM (inactive) in the assay with UACC-62; 34.3 µM (inactive) with LOX IMVI; 34.4 µM (inactive) in the assay with SF-268; 55.8 µM (inactive) with A549; 24.8 µM (inactive) in the assay on K562; 51.8 µM (inactive) in the assay on DU-145. For the same compound, the GI50 with SK-MEL-5 was 32.4 µM (inactive).

In the case of `CCOC(=O)C12C(=O)CCN1CCc1ccccc1C2C` (stereo unspecified), the GI50 in the assay with BT-549, in the assay on PC-3, with NCI/ADR-RES, with SW-620, with A498 and with SN12C was > 100 µM (inactive) in each case. Also, the GI50 in the assay with 786-0 is > 100 µM (inactive); in the assay on IGROV-1 it was > 100 µM (inactive); with MDA-MB-435, > 100 µM (inactive); with T47D, > 100 µM (inactive); with HCT-15, > 100 µM; in the assay on UACC-62, > 100 µM (inactive). Besides, the GI50 in the assay on LOX IMVI, with SF-268, in the assay on A549, in the assay with K562, with DU-145 and in the assay with SK-MEL-5 was > 100 µM (inactive) in each case.

With `O=C(Nc1ccccc1)c1cc2ccccc2c(/N=N/c2ccc([N+](=O)[O-])cc2)c1O`, the GI50 is 44.3 µM (inactive) with BT-549; > 100 µM (inactive) with PC-3; > 100 µM (inactive) in the assay on NCI/ADR-RES; > 100 µM (inactive) with SW-620; > 100 µM (inactive) in the assay with SN12C; 86.3 µM (inactive) in the assay with 786-0. In addition, the GI50 with CCRF-CEM was 4.85 µM (inactive); with IGROV-1, > 100 µM (inactive); with MDA-MB-435 it was > 100 µM (inactive); in the assay on T47D, > 100 µM (inactive); with HCT-15, > 100 µM; in the assay with UACC-62, 65.2 µM (inactive). The GI50 with LOX IMVI was > 100 µM (inactive); with SF-268 it was > 100 µM (inactive); in the assay with A549 it was > 100 µM (inactive); in the assay on K562 it was 35.6 µM (inactive); with DU-145, > 100 µM (inactive); with SK-MEL-5 it was > 100 µM (inactive).

`O=C(/C=C\c1ccccc1)Oc1ccc(/C=C2\CCC/C(=C\c3ccc(OC(=O)/C=C\c4ccccc4)cc3)C2=O)cc1`: the GI50 with BT-549, in the assay with NCI-H460, in the assay on PC-3, with NCI/ADR-RES, with SW-620 and in the assay with SN12C was > 100 µM (inactive) throughout. Also, the GI50 in the assay with 786-0 is > 100 µM (inactive); in the assay with CCRF-CEM it was > 100 µM (inactive); in the assay on MDA-MB-435 it was > 100 µM (inactive); with T47D it was > 100 µM (inactive); in the assay with HCT-15 it was > 100 µM; in the assay on UACC-62 it was > 100 µM (inactive). The GI50 in the assay with LOX IMVI, in the assay on SF-268, in the assay with A549, with DU-145 and with SK-MEL-5 was > 100 µM (inactive) each time.

In the case of `Clc1ccc(CN2CCCN(Cc3ccc(Cl)cc3)C2c2cc3ccccc3c3ccccc23)cc1`, the GI50 in the assay with BT-549 is 38.3 µM (inactive); in the assay on PC-3, 24.3 µM (inactive); in the assay with NCI/ADR-RES, 65.8 µM (inactive); with SW-620 it was 51.8 µM (inactive); in the assay on A498, 19 µM (inactive); in the assay on SN12C it was 67.3 µM (inactive). Also, the GI50 was 75 µM (inactive) in the assay with 786-0; > 100 µM (inactive) in the assay on IGROV-1; 30.2 µM (inactive) in the assay with MDA-MB-435; 32.4 µM (inactive) in the assay on T47D; 62.8 µM in the assay with HCT-15; 18.7 µM (inactive) in the assay on UACC-62. Besides, the GI50 is 36.5 µM (inactive) with LOX IMVI; 44.3 µM (inactive) with SF-268; > 100 µM (inactive) with A549; 44.2 µM (inactive) in the assay with DU-145; 17.8 µM (inactive) with SK-MEL-5.
